Experiment: Storage stability of crystalline forms at room temperature for two years (form by XRD)
Type: physicochemical
Conditions: for Crystal form after 2 years: 1 g sample in closed glass bottle, room temperature, form by XRD, monosodium salt
Experimental: The x-ray powder diffraction was performed on Scintag X-ray powder diffractometer model X'TRA with a solid state detector at room temperature. Copper radiation of 1.5418 Å was used. The sample holder was a round standard aluminum sample holder with rough zero background. The scanning parameters were range: 2-40 degrees two-theta; scan mode: continuous scan; step size: 0.05 degrees; and at a rate of 5 degrees/minute.
1 g samples of crystalline ibandronate sodium Forms K1, D, J, H, E, Q2, QQ, K3, Q4, L, G, C, S, R, Q3, K, and Q6, as well as amorphous form were each placed into separate glass bottles, which were then closed and stored at room temperature for 2 years.

CCCCCN(C)CCC(O)(P(=O)([O-])O)P(=O)(O)O.[Na+] [Form S, (1-hydroxy-3-(N-methyl-N-pentylamino)propylidene) bisphosphonic acid monosodium salt]
Crystal form after 2 years: Q plus additional XRD reflections at 10.4,

CCCCCN(C)CCC(O)(P(=O)([O-])O)P(=O)(O)O.[Na+] [Form C, (1-hydroxy-3-(N-methyl-N-pentylamino)propylidene) bisphosphonic acid monosodium salt]
Crystal form after 2 years: Form V

CCCCCN(C)CCC(O)(P(=O)([O-])O)P(=O)(O)O.[Na+] [Form H, (1-hydroxy-3-(N-methyl-N-pentylamino)propylidene) bisphosphonic acid monosodium salt]
Crystal form after 2 years (listed as H): H + V
Crystal form after 2 years: mixture of crystalline ibandronate sodium Forms H and V

CCCCCN(C)CCC(O)(P(=O)([O-])O)P(=O)(O)O.[Na+] [Form D, (1-hydroxy-3-(N-methyl-N-pentylamino)propylidene) bisphosphonic acid monosodium salt]
Stability of crystalline form on storage (about 15° C. to about 30° C. for more than about 3 months, as described in Example 7): stable
Retention of crystalline form after storage (room temperature for two years): maintained their crystalline form
